Measured values reported in PubChem BioAssay (NCI).
Values joined by “and” are separate entries in the source; they are usually repeats but may differ in a detail not shown here. Equal entries are not always repeated.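 Results reflect a 48-hour exposure of cells in 96-well plates to compound at five concentrations. The concentration for 50% growth inhibition is given as GI50. TGI: concentration producing complete growth inhibition.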

System: MDA-MB-468 breast
Experiment: NCI anticancer screen, dose series, 48 h

First: COc1ccc(-n2c(-c3ccc(NC(=O)CCCl)cc3)nnc2-c2cc(OC)c(OC)c(OC)c2)cc1
Second: COc1cc(-c2nnc(SCc3ccc(O)c4ncccc34)n2-c2ccccc2)cc(OC)c1OC
The GI50 of the first is 8.3-fold higher: 2.08 µM for the first, 0.251 µM for the second.

`O=C1C(Cl)=C(Oc2ccccc2)C(=O)c2ccccc21` and `c1ccc(Oc2c3ccccc3nc3ccccc23)cc1` are within 1.5-fold of each other in GI50: 1.93 µM for the first, 1.35 µM for the second.

`C=C1C(=O)O[C@H]2[C@H]1CC/C(COC(=O)/C=C/c1cccnc1)=C\CC[C@@]1(C)O[C@@H]21` and `O=C1c2[nH]cc(CN[C@@H]3CCCN3)c2C(=O)c2c1c(O)c1ccccc1c2O` are within 1.5-fold of each other in GI50: 0.831 µM for the first, 1.18 µM for the second.

Going from `O=S(=O)(Nc1cccc2ccccc12)c1ccc(-c2cnc(C3CC3)o2)cc1` to `O=C(Nc1cccc(NS(=O)(=O)c2ccc(F)cc2)c1)c1ccc(-c2ccccc2)cc1`, the GI50 rises from 0.0432 µM to 2.18 µM (50-fold).

Compared with `COc1cccc(-c2nc(-c3ccc(NS(=O)(=O)c4ccccc4)cc3)[nH]c2-c2ccnc(Br)c2)c1`, `CS(=O)(=O)c1ccc(Oc2nccc(-c3c(-c4ccc(F)cc4)ncn3C3CCNCC3)n2)cc1` is 9.6-fold higher in GI50: 1.98 µM for the first, 19.1 µM for the second.

`O=C(Nc1ncc([N+](=O)[O-])s1)c1cccc([N+](=O)[O-])c1` and `Nc1nc(-c2cccc([N+](=O)[O-])c2)c(N=Nc2ccccc2[N+](=O)[O-])s1` are within 1.5-fold of each other in GI50: 3.42 µM for the first, 2.7 µM for the second.

Compared with `C[C@@H](Oc1cc(-c2cnn(C3CCNCC3)c2)cnc1N)c1c(Cl)ccc(F)c1Cl`, `OCc1ccc(N(Cc2ccc(F)cc2)C2CCC2)cc1Cl` is 60-fold lower in GI50: 1.06 µM for the first, 0.0176 µM for the second.

First: COc1ccc(/C=C/C(=O)/C=C(/C=C/c2ccc(OC)c(OC)c2)OB(F)F)cc1OC
Second: COc1ccc(/C=C\c2cc(OC)c(OC)c(OC)c2)cc1NC(=O)[C@@H](N)CO
The GI50 of the first is higher: 0.578 µM for the first, less than 0.0178 µM for the second.

Going from `COc1ccc(/C=C(\C#N)n2nnc3cc(Cl)ccc32)cc1` to `CCNCCNc1cc(-c2ccc(Cl)cc2)c(C#N)c2nc3ccccc3n12`, the GI50 rises from 0.258 µM to 0.642 µM (2.5-fold).

`CCOC(=O)Oc1c(OC)cc(C(=O)c2ccc(OC)c(OC(=O)CCl)c2OC)cc1OC` and `COc1ccc(C(=O)c2cc(OC)c(OC)c(OC)c2)cc1/C=C/C(=O)c1ccc(O)cc1` are within 1.5-fold of each other in GI50: 2.49 µM for the first, 2.07 µM for the second.

First: CCN(Cc1ccc(F)cc1F)c1ccc(CO)c(Cl)c1
Second: CCN(CC)c1ccc2[nH]c3c(C(N)=O)cc(=O)c(=O)c=3oc2c1
The GI50 of the first is 120-fold lower: 0.0159 µM for the first, 1.85 µM for the second.

First: COc1c(O)cc2oc3cc(O)c(CC=C(C)C)c(O)c3c(=O)c2c1C/C=C(\C)CCC=C(C)C
Second: Cc1ccc2c(/C=C/C(=O)c3cc(CN4CCOCC4)c(O)c4nc(C)ccc34)cc(CN3CCOCC3)c(O)c2n1
The GI50 of the first is 16-fold higher: 7.16 µM for the first, 0.434 µM for the second.

Compared with `COc1ccc(-c2nc3sccn3c2/C=C/C(=O)c2cc(OC)c(OC)c(OC)c2)cc1OC`, `COc1cc(-c2cc(C(=O)Nc3nc4ccccc4s3)nc3cc(-c4ccccc4)nn23)cc(OC)c1OC` is 6.5-fold higher in GI50: 2.15 µM for the first, 13.9 µM for the second.

First: Cn1cc(-c2nc(-c3c[nH]c4ncccc34)cs2)c2cc(Cl)ccc21
Second: c1ccc2c(NCCCn3ccnc3)c3oc4ccccc4c3nc2c1
The GI50 of the first is 5.3-fold lower: 0.316 µM for the first, 1.66 µM for the second.

Going from `O=c1oc2ccccc2c(Cl)c1Cl` to `Cc1c(C(=O)CCl)c(=O)n(-c2ccccc2)n1C`, the GI50 falls from 1.85 µM to 0.675 µM (2.7-fold).

`Nc1nc(N)c2c(n1)NC(c1ccc(F)cc1)CC(c1ccc(Nc3nc(NCCO)nc(Nc4ccc(Cl)cc4)n3)cc1)=N2` (stereo not given) and `Clc1ccc(Nc2ccnc(NCCNc3ccnc4cc(Cl)ccc34)n2)cc1` are within 1.5-fold of each other in GI50: 1.48 µM for the first, 1.06 µM for the second.

First: Clc1ccc(N2COOC3(OOC2)C2CC4CC(C2)CC3C4)cc1
Second: O=C(CCl)Nc1ccccc1SCc1cc(Cl)cc2c1OCOC2
The GI50 of the first is 3-fold higher: 5.8 µM for the first, 1.93 µM for the second.

First: CC(C)(C)[Si](C)(C)OC1[C@@H](O[Si](C)(C)C(C)(C)C)[C@@H](CNC(=O)NC(=O)NC(=O)CI)O[C@H]1n1cnc2c(NC(=O)Nc3ccccc3)ncnc21 (stereo not given in full)
Second: O=C(CSc1nc2ccc([N+](=O)[O-])cc2[nH]1)Nc1cccc(C(F)(F)F)c1
The GI50 of the first is 2.9-fold lower: 0.334 µM for the first, 0.964 µM for the second.

Going from `Cc1ccc(C)c(-n2c(-c3ccc(Br)cc3)csc2=NC(=O)c2ccccc2F)c1` to `COC(=O)/C=C1\SC(=Nc2ccc(C(F)(F)F)cc2)N(CCc2c[nH]c3ccccc23)C1=O`, the GI50 falls from greater than 100 µM to 2.08 µM.

Molecule `O=P(Oc1ccccc1)(Oc1ccccc1)C(O)c1ccccc1` (stereo not given) has a GI50 of 35 µM.

Going from `COc1ccc(-n2c(-c3ccc(NC(=O)CCCl)cc3)nnc2-c2cc(OC)c(OC)c(OC)c2)cc1` to `COc1cc(-c2nnc(SCc3ccc(O)c4ncccc34)n2-c2ccccc2)cc(OC)c1OC`, the TGI falls from 5.68 µM to 2.53 µM (2.2-fold).

`O=C1C(Cl)=C(Oc2ccccc2)C(=O)c2ccccc21` and `c1ccc(Oc2c3ccccc3nc3ccccc23)cc1` are within 1.5-fold of each other in TGI: 3.75 µM for the first, 4.62 µM for the second.

First: C=C1C(=O)O[C@H]2[C@H]1CC/C(COC(=O)/C=C/c1cccnc1)=C\CC[C@@]1(C)O[C@@H]21
Second: O=C1c2[nH]cc(CN[C@@H]3CCCN3)c2C(=O)c2c1c(O)c1ccccc1c2O
The TGI of the first is 1.6-fold higher: 4.3 µM for the first, 2.65 µM for the second.

`O=S(=O)(Nc1cccc2ccccc12)c1ccc(-c2cnc(C3CC3)o2)cc1` and `O=C(Nc1cccc(NS(=O)(=O)c2ccc(F)cc2)c1)c1ccc(-c2ccccc2)cc1` are within 1.5-fold of each other in TGI: 12.8 µM for the first, 9.56 µM for the second.

Compared with `COc1cccc(-c2nc(-c3ccc(NS(=O)(=O)c4ccccc4)cc3)[nH]c2-c2ccnc(Br)c2)c1`, `CS(=O)(=O)c1ccc(Oc2nccc(-c3c(-c4ccc(F)cc4)ncn3C3CCNCC3)n2)cc1` is higher in TGI: 5.23 µM for the first, greater than 25 µM for the second.

`O=C(Nc1ncc([N+](=O)[O-])s1)c1cccc([N+](=O)[O-])c1` and `Nc1nc(-c2cccc([N+](=O)[O-])c2)c(N=Nc2ccccc2[N+](=O)[O-])s1` are within 1.5-fold of each other in TGI: 38.7 µM for the first, 26.2 µM for the second.

First: C[C@@H](Oc1cc(-c2cnn(C3CCNCC3)c2)cnc1N)c1c(Cl)ccc(F)c1Cl
Second: OCc1ccc(N(Cc2ccc(F)cc2)C2CCC2)cc1Cl
The TGI of the first is 80-fold higher: 3.72 µM for the first, 0.0464 µM for the second.

Compared with `COc1ccc(/C=C/C(=O)/C=C(/C=C/c2ccc(OC)c(OC)c2)OB(F)F)cc1OC`, `COc1ccc(/C=C\c2cc(OC)c(OC)c(OC)c2)cc1NC(=O)[C@@H](N)CO` is 2.3-fold lower in TGI: 2.89 µM for the first, 1.27 µM for the second.

Going from `COc1ccc(/C=C(\C#N)n2nnc3cc(Cl)ccc32)cc1` to `CCNCCNc1cc(-c2ccc(Cl)cc2)c(C#N)c2nc3ccccc3n12`, the TGI rises from 0.941 µM to 2.09 µM (2.2-fold).

First: CCOC(=O)Oc1c(OC)cc(C(=O)c2ccc(OC)c(OC(=O)CCl)c2OC)cc1OC
Second: COc1ccc(C(=O)c2cc(OC)c(OC)c(OC)c2)cc1/C=C/C(=O)c1ccc(O)cc1
The TGI of the first is higher: greater than 100 µM for the first, 8.09 µM for the second.

Going from `CCN(Cc1ccc(F)cc1F)c1ccc(CO)c(Cl)c1` to `CCN(CC)c1ccc2[nH]c3c(C(N)=O)cc(=O)c(=O)c=3oc2c1`, the TGI rises from 0.0395 µM to 4.75 µM (120-fold).

Going from `COc1c(O)cc2oc3cc(O)c(CC=C(C)C)c(O)c3c(=O)c2c1C/C=C(\C)CCC=C(C)C` to `Cc1ccc2c(/C=C/C(=O)c3cc(CN4CCOCC4)c(O)c4nc(C)ccc34)cc(CN3CCOCC3)c(O)c2n1`, the TGI falls from 12.5 µM to 2.02 µM (6.2-fold).

First: COc1ccc(-c2nc3sccn3c2/C=C/C(=O)c2cc(OC)c(OC)c(OC)c2)cc1OC
Second: COc1cc(-c2cc(C(=O)Nc3nc4ccccc4s3)nc3cc(-c4ccccc4)nn23)cc(OC)c1OC
The TGI of the first is 7.6-fold lower: 5.02 µM for the first, 38 µM for the second.

`Cn1cc(-c2nc(-c3c[nH]c4ncccc34)cs2)c2cc(Cl)ccc21` and `c1ccc2c(NCCCn3ccnc3)c3oc4ccccc4c3nc2c1` are within 1.5-fold of each other in TGI: 2.34 µM for the first, 3.42 µM for the second.

`O=c1oc2ccccc2c(Cl)c1Cl` and `Cc1c(C(=O)CCl)c(=O)n(-c2ccccc2)n1C` are within 1.5-fold of each other in TGI: 4.32 µM for the first, 3.08 µM for the second.

`Nc1nc(N)c2c(n1)NC(c1ccc(F)cc1)CC(c1ccc(Nc3nc(NCCO)nc(Nc4ccc(Cl)cc4)n3)cc1)=N2` (stereo not given) and `Clc1ccc(Nc2ccnc(NCCNc3ccnc4cc(Cl)ccc34)n2)cc1` are within 1.5-fold of each other in TGI: 3.15 µM for the first, 2.34 µM for the second.

First: Clc1ccc(N2COOC3(OOC2)C2CC4CC(C2)CC3C4)cc1
Second: O=C(CCl)Nc1ccccc1SCc1cc(Cl)cc2c1OCOC2
The TGI of the first is higher: greater than 67.8 µM for the first, 4.5 µM for the second.

Compared with `CC(C)(C)[Si](C)(C)OC1[C@@H](O[Si](C)(C)C(C)(C)C)[C@@H](CNC(=O)NC(=O)NC(=O)CI)O[C@H]1n1cnc2c(NC(=O)Nc3ccccc3)ncnc21` (stereo not given in full), `O=C(CSc1nc2ccc([N+](=O)[O-])cc2[nH]1)Nc1cccc(C(F)(F)F)c1` is 2.3-fold higher in TGI: 2.06 µM for the first, 4.71 µM for the second.

First: Cc1ccc(C)c(-n2c(-c3ccc(Br)cc3)csc2=NC(=O)c2ccccc2F)c1
Second: COC(=O)/C=C1\SC(=Nc2ccc(C(F)(F)F)cc2)N(CCc2c[nH]c3ccccc23)C1=O
The TGI of the first is higher: greater than 100 µM for the first, 4.05 µM for the second.

`O=P(Oc1ccccc1)(Oc1ccccc1)C(O)c1ccccc1` (stereo not given) showed a TGI greater than 100 µM.

In the case of `O=C1NC(=O)[C@@H](c2cn3c4c(cccc24)CCC3)[C@@H]1c1c[nH]c2ccccc12`, the GI50 is reported as 0.306 µM and 0.26 µM.

In the case of `O=C1NC(=O)[C@@H](c2cn3c4c(cccc24)CCC3)[C@@H]1c1c[nH]c2ccccc12`, the TGI is reported as > 10 µM and 3.81 µM.
